Assay results from PMC7846792, “Perception of a divergent family of phytocytokines by the Arabidopsis receptor kinase MIK2” (Nature Communications, 2021).
No end group written: not given here.

Columns and labels:
[1] = target: MIK2 ectodomain (MIK2^ECD, residues 1–709) (Arabidopsis thaliana) (UniProt Q8VZG8); experiment: ITC; 200 μM SCOOP12 in the syringe injected into 20 μM MIK2 ectodomain in the cell; 25 °C; 20 mM sodium citrate pH 5.0, 150 mM NaCl; N fitted to 1
[2] = system: A. thaliana seedlings; experiment: Seedling growth inhibition (fresh weight); format: in vivo, Arabidopsis thaliana; settings: mock mean = 1
Protocol: Four-day-old seedlings growing on MS plates were transferred individually into separate wells of transparent 48-well tissue culture plates (Greiner Bio-One) containing 500 μL of liquid MS media with/without elicitor addition. The plates were then transferred back to the growth conditions for an additional 10 days before seedlings were blot-dried and weighed.

[3] = target: T1, MIK2 ectodomain (MIK2ECD, residues 1–709) (Arabidopsis thaliana, UniProt Q8VZG8); experiment: ITC, MIK2 vs SCOOP12; format: binding
T1 construct: Arabidopsis thaliana MIK2 (residues 1–709); StrepII-9xHis (TEV-cleavable) (C, cleaved yes); made in house; host or cells: Trichoplusia ni Tnao38 insect cells (baculovirus, modified pFastBac)
T1 sequence (Q8VZG8 44-709): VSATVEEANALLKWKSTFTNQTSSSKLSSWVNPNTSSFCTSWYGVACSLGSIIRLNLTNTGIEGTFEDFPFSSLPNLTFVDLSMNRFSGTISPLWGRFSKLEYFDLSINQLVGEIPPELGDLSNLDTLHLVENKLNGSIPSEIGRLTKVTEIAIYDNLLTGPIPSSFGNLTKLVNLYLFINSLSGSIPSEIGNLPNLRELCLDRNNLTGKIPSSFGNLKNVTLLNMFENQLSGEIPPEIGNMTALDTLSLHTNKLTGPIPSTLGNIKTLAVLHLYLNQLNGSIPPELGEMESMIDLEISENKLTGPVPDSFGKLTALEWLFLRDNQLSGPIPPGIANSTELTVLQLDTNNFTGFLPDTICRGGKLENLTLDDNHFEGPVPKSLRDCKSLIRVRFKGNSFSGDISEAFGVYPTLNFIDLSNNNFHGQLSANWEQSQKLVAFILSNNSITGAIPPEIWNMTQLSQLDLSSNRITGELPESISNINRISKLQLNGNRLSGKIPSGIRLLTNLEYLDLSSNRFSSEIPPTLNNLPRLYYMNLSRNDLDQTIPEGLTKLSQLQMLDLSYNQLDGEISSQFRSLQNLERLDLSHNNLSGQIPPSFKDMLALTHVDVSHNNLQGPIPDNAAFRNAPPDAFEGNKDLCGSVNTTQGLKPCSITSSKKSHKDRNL
Text: ITC data were corrected for the heat of dilution by subtracting the mixing enthalpies for titrant solution injections into protein-free ITC buffer. […] The N values were fitted to 1 in the analysis.

[4] = target: MIK2–SCOOP12 complex (MIK2 ectodomain with SCOOP12 peptide, formed beforehand in the ITC cell) (Arabidopsis thaliana) (UniProt Q8VZG8); experiment: ITC; 200 µM BAK1 ectodomain titrated onto the MIK2–SCOOP12 complex in the cell; 25 °C; 20 mM sodium citrate pH 5.0, 150 mM NaCl; N fitted to 1

## SERINE RICH ENDOGENOUS PEPTIDE 12 (SCOOP12) synthetic peptide
[1]
  Kd: 4.6 µM

## RAGPSKSGQGGGR [SCOOP7]
[2]; Col-0, 1 μM, replicate 1
  Seedling fresh weight (Fig3C), relative to mock: 0.0761
[2]; Col-0, 1 μM, replicate 2
  Seedling fresh weight (Fig3C), relative to mock: 0.03653
[2]; Col-0, 1 μM, replicate 3
  Seedling fresh weight (Fig3C), relative to mock: 0.1644
[2]; Col-0, 1 μM, replicate 4
  Seedling fresh weight (Fig3C), relative to mock: 0.1522
[2]; Col-0, 1 μM, replicate 5
  Seedling fresh weight (Fig3C), relative to mock: 0.1644
[2]; Col-0, 1 μM, replicate 6
  Seedling fresh weight (Fig3C), relative to mock: 0.01826
[2]; Col-0, 1 μM, replicate 7
  Seedling fresh weight (Fig3C), relative to mock: 0.0761
[2]; Col-0, 1 μM, replicate 8
  Seedling fresh weight (Fig3C), relative to mock: 0.07914
[2]; Col-0, 1 μM, replicate 9
  Seedling fresh weight (Fig3C), relative to mock: 0.09436
[2]; Col-0, 1 μM, replicate 10
  Seedling fresh weight (Fig3C), relative to mock: 0.08523
[2]; Col-0, 1 μM, replicate 11
  Seedling fresh weight (Fig3C), relative to mock: 0.1218
[2]; Col-0, 1 μM, replicate 12
  Seedling fresh weight (Fig3C), relative to mock: 0.1035
[2]; Col-0, 10 μM, replicate 1
  Seedling fresh weight (Fig3C), relative to mock: 0.009098
[2]; Col-0, 10 μM, replicate 2
  Seedling fresh weight (Fig3C), relative to mock: 0.006065
[2]; Col-0, 10 μM, replicate 3
  Seedling fresh weight (Fig3C), relative to mock: 0.003033
[2]; Col-0, 10 μM, replicate 4
  Seedling fresh weight (Fig3C), relative to mock: 0.009098
[2]; Col-0, 10 μM, replicate 5
  Seedling fresh weight (Fig3C), relative to mock: 0.01213
[2]; Col-0, 10 μM, replicate 6
  Seedling fresh weight (Fig3C), relative to mock: 0.009098
[2]; Col-0, 10 μM, replicate 7
  Seedling fresh weight (Fig3C), relative to mock: 0.01213
[2]; Col-0, 10 μM, replicate 8
  Seedling fresh weight (Fig3C), relative to mock: 0.009098
[2]; Col-0, 10 μM, replicate 9
  Seedling fresh weight (Fig3C), relative to mock: 0.01213
[2]; Col-0, 10 μM, replicate 10
  Seedling fresh weight (Fig3C), relative to mock: 0.009098
[2]; Col-0, 10 μM, replicate 11
  Seedling fresh weight (Fig3C), relative to mock: 0.01516
[2]; Col-0, 10 μM, replicate 12
  Seedling fresh weight (Fig3C), relative to mock: 0.006065
[2]; mik2-1, 1 μM, replicate 1
  Seedling fresh weight (Fig3C), relative to mock: 1.0796
[2]; mik2-1, 1 μM, replicate 2
  Seedling fresh weight (Fig3C), relative to mock: 1.12
[2]; mik2-1, 1 μM, replicate 3
  Seedling fresh weight (Fig3C), relative to mock: 1.033
[2]; mik2-1, 1 μM, replicate 4
  Seedling fresh weight (Fig3C), relative to mock: 0.9787
[2]; mik2-1, 1 μM, replicate 5
  Seedling fresh weight (Fig3C), relative to mock: 1.006
[2]; mik2-1, 1 μM, replicate 6
  Seedling fresh weight (Fig3C), relative to mock: 0.861
[2]; mik2-1, 1 μM, replicate 7
  Seedling fresh weight (Fig3C), relative to mock: 0.9955
[2]; mik2-1, 1 μM, replicate 8
  Seedling fresh weight (Fig3C), relative to mock: 0.9652
[2]; mik2-1, 1 μM, replicate 9
  Seedling fresh weight (Fig3C), relative to mock: 0.9047
[2]; mik2-1, 1 μM, replicate 10
  Seedling fresh weight (Fig3C), relative to mock: 1.0157
[2]; mik2-1, 1 μM, replicate 11
  Seedling fresh weight (Fig3C), relative to mock: 1.049
[2]; mik2-1, 1 μM, replicate 12
  Seedling fresh weight (Fig3C), relative to mock: 0.9518
[2]; mik2-1, 10 μM, replicate 1
  Seedling fresh weight (Fig3C), relative to mock: 1.014
[2]; mik2-1, 10 μM, replicate 2
  Seedling fresh weight (Fig3C), relative to mock: 0.9772
[2]; mik2-1, 10 μM, replicate 3
  Seedling fresh weight (Fig3C), relative to mock: 0.9332
[2]; mik2-1, 10 μM, replicate 4
  Seedling fresh weight (Fig3C), relative to mock: 0.9062
[2]; mik2-1, 10 μM, replicate 5
  Seedling fresh weight (Fig3C), relative to mock: 1.001
[2]; mik2-1, 10 μM, replicate 6
  Seedling fresh weight (Fig3C), relative to mock: 0.94
[2]; mik2-1, 10 μM, replicate 7
  Seedling fresh weight (Fig3C), relative to mock: 1.035
[2]; mik2-1, 10 μM, replicate 8
  Seedling fresh weight (Fig3C), relative to mock: 1.085
[2]; mik2-1, 10 μM, replicate 9
  Seedling fresh weight (Fig3C), relative to mock: 1.062
[2]; mik2-1, 10 μM, replicate 10
  Seedling fresh weight (Fig3C), relative to mock: 0.9197
[2]; mik2-1, 10 μM, replicate 11
  Seedling fresh weight (Fig3C), relative to mock: 0.9569
[2]; mik2-1, 10 μM, replicate 12
  Seedling fresh weight (Fig3C), relative to mock: 0.9028

## FTGPSGSGHGGGR [SCOOP10]
[2]; Col-0, 1 μM, replicate 1
  Seedling fresh weight (Fig3C), relative to mock: 1.053
[2]; Col-0, 1 μM, replicate 2
  Seedling fresh weight (Fig3C), relative to mock: 0.7731
[2]; Col-0, 1 μM, replicate 3
  Seedling fresh weight (Fig3C), relative to mock: 0.8401
[2]; Col-0, 1 μM, replicate 4
  Seedling fresh weight (Fig3C), relative to mock: 1.102
[2]; Col-0, 1 μM, replicate 5
  Seedling fresh weight (Fig3C), relative to mock: 0.9923
[2]; Col-0, 1 μM, replicate 6
  Seedling fresh weight (Fig3C), relative to mock: 0.9101
[2]; Col-0, 1 μM, replicate 7
  Seedling fresh weight (Fig3C), relative to mock: 0.9071
[2]; Col-0, 1 μM, replicate 8
  Seedling fresh weight (Fig3C), relative to mock: 0.8705
[2]; Col-0, 1 μM, replicate 9
  Seedling fresh weight (Fig3C), relative to mock: 0.8462
[2]; Col-0, 1 μM, replicate 10
  Seedling fresh weight (Fig3C), relative to mock: 0.7792
[2]; Col-0, 1 μM, replicate 11
  Seedling fresh weight (Fig3C), relative to mock: 0.9497
[2]; Col-0, 1 μM, replicate 12
  Seedling fresh weight (Fig3C), relative to mock: 0.9679
[2]; Col-0, 10 μM, replicate 1
  Seedling fresh weight (Fig3C), relative to mock: 0.6611
[2]; Col-0, 10 μM, replicate 2
  Seedling fresh weight (Fig3C), relative to mock: 0.655
[2]; Col-0, 10 μM, replicate 3
  Seedling fresh weight (Fig3C), relative to mock: 0.649
[2]; Col-0, 10 μM, replicate 4
  Seedling fresh weight (Fig3C), relative to mock: 0.4731
[2]; Col-0, 10 μM, replicate 5
  Seedling fresh weight (Fig3C), relative to mock: 0.5034
[2]; Col-0, 10 μM, replicate 6
  Seedling fresh weight (Fig3C), relative to mock: 0.7187
[2]; Col-0, 10 μM, replicate 7
  Seedling fresh weight (Fig3C), relative to mock: 0.652
[2]; Col-0, 10 μM, replicate 8
  Seedling fresh weight (Fig3C), relative to mock: 0.7096
[2]; Col-0, 10 μM, replicate 9
  Seedling fresh weight (Fig3C), relative to mock: 0.5944
[2]; Col-0, 10 μM, replicate 10
  Seedling fresh weight (Fig3C), relative to mock: 0.5519
[2]; Col-0, 10 μM, replicate 11
  Seedling fresh weight (Fig3C), relative to mock: 0.555
[2]; Col-0, 10 μM, replicate 12
  Seedling fresh weight (Fig3C), relative to mock: 0.6884
[2]; mik2-1, 1 μM, replicate 1
  Seedling fresh weight (Fig3C), relative to mock: 0.8644
[2]; mik2-1, 1 μM, replicate 2
  Seedling fresh weight (Fig3C), relative to mock: 1.019
[2]; mik2-1, 1 μM, replicate 3
  Seedling fresh weight (Fig3C), relative to mock: 1.022
[2]; mik2-1, 1 μM, replicate 4
  Seedling fresh weight (Fig3C), relative to mock: 0.7702
[2]; mik2-1, 1 μM, replicate 5
  Seedling fresh weight (Fig3C), relative to mock: 0.8139
[2]; mik2-1, 1 μM, replicate 6
  Seedling fresh weight (Fig3C), relative to mock: 0.8307
[2]; mik2-1, 1 μM, replicate 7
  Seedling fresh weight (Fig3C), relative to mock: 0.9619
[2]; mik2-1, 1 μM, replicate 8
  Seedling fresh weight (Fig3C), relative to mock: 1.049
[2]; mik2-1, 1 μM, replicate 9
  Seedling fresh weight (Fig3C), relative to mock: 1.086
[2]; mik2-1, 1 μM, replicate 10
  Seedling fresh weight (Fig3C), relative to mock: 1.002
[2]; mik2-1, 1 μM, replicate 11
  Seedling fresh weight (Fig3C), relative to mock: 1.026
[2]; mik2-1, 1 μM, replicate 12
  Seedling fresh weight (Fig3C), relative to mock: 1.123
[2]; mik2-1, 10 μM, replicate 1
  Seedling fresh weight (Fig3C), relative to mock: 0.8284
[2]; mik2-1, 10 μM, replicate 2
  Seedling fresh weight (Fig3C), relative to mock: 1.096
[2]; mik2-1, 10 μM, replicate 3
  Seedling fresh weight (Fig3C), relative to mock: 0.9366
[2]; mik2-1, 10 μM, replicate 4
  Seedling fresh weight (Fig3C), relative to mock: 0.8791
[2]; mik2-1, 10 μM, replicate 5
  Seedling fresh weight (Fig3C), relative to mock: 0.9096
[2]; mik2-1, 10 μM, replicate 6
  Seedling fresh weight (Fig3C), relative to mock: 0.8453
[2]; mik2-1, 10 μM, replicate 7
  Seedling fresh weight (Fig3C), relative to mock: 0.967
[2]; mik2-1, 10 μM, replicate 8
  Seedling fresh weight (Fig3C), relative to mock: 0.94
[2]; mik2-1, 10 μM, replicate 9
  Seedling fresh weight (Fig3C), relative to mock: 0.9806
[2]; mik2-1, 10 μM, replicate 10
  Seedling fresh weight (Fig3C), relative to mock: 0.896
[2]; mik2-1, 10 μM, replicate 11
  Seedling fresh weight (Fig3C), relative to mock: 1.031
[2]; mik2-1, 10 μM, replicate 12
  Seedling fresh weight (Fig3C), relative to mock: 1.096

## PVRSSQSSQAGGR [SCOOP12]
[3]
  Kd: 4.56 ± 0.299 µM

B1: BAK1 ectodomain (residues 1–220) (domain or fragment)
chain: NAEGDALSALKNSLADPNKVLQSWDATLVTPCTWFHVTCNSDNSVTRVDLGNANLSGQLVMQLGQLPNLQYLELYSNNITGTIPEQLGNLTELVSLDLYLNNLSGPIPSTLGRLKKLRFLRLNNNSLSGEIPRSLTAVLTLQVLDLSNNPLTGDIPVNGSFSLFTPISFANTKLTPLPASPPPPISPTPPSPAGS
[4]
  Kd: 0.275 µM
